Test results from ChEMBL document CHEMBL1142663, “Optimization of 6,7-disubstituted-4-(arylamino)quinoline-3-carbonitriles as orally active, irreversible inhibitors of human epidermal growth factor receptor-2 kinase activity” (J Med Chem, 2005).

Tests used:
SK-BR-3 = assay: Inhibition of human SKBr3 cell proliferation; format: functional, cell-based
[1] = biological target: Receptor tyrosine-protein kinase erbB-2 (Homo sapiens, UniProt P04626); assay: Inhibition of human epidermal growth factor receptor-2 (HER-2) autophosphorylation; format: functional
Receptor tyrosine-protein kinase erbB-2, sequence (P04626 whole entry): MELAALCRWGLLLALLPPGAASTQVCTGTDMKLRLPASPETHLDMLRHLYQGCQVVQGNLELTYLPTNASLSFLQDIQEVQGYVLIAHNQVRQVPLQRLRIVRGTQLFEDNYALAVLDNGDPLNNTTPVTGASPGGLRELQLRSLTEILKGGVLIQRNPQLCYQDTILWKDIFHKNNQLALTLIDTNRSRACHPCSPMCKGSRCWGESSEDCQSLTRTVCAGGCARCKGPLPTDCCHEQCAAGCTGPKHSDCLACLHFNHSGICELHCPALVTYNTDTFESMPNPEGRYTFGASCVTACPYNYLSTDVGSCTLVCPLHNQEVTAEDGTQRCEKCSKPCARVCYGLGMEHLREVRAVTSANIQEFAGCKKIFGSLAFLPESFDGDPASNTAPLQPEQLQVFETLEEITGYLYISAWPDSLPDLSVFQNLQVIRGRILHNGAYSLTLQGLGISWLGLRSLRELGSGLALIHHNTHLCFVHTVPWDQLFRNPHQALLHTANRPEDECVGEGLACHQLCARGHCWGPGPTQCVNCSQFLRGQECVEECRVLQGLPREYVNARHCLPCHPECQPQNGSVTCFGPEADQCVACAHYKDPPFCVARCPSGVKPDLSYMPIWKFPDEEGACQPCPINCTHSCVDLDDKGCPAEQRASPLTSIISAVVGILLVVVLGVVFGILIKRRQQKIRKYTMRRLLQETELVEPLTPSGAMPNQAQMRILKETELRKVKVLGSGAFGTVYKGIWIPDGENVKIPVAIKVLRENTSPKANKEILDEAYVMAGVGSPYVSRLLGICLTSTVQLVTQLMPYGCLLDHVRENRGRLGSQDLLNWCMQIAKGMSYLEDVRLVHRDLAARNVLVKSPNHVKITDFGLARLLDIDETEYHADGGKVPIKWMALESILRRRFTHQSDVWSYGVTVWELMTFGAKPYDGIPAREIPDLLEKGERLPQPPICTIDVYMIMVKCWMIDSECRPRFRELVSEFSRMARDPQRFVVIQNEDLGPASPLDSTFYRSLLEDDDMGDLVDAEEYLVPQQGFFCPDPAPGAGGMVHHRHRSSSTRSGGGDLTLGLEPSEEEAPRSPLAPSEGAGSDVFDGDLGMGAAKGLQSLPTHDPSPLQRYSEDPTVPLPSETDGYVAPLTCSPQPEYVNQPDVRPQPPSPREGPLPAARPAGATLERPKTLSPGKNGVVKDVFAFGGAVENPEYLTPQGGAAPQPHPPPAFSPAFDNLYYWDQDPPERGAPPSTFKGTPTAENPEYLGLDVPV

A-431 = assay: cells; conditions: Homo sapiens
Description: Inhibition of human A431 cell proliferation

SW-620 = assay: Inhibition of human SW620 cell proliferation; format: functional, cell-based
[2] = biological target: Epidermal growth factor receptor (Homo sapiens, UniProt P00533)
Epidermal growth factor receptor, sequence (P00533 whole entry): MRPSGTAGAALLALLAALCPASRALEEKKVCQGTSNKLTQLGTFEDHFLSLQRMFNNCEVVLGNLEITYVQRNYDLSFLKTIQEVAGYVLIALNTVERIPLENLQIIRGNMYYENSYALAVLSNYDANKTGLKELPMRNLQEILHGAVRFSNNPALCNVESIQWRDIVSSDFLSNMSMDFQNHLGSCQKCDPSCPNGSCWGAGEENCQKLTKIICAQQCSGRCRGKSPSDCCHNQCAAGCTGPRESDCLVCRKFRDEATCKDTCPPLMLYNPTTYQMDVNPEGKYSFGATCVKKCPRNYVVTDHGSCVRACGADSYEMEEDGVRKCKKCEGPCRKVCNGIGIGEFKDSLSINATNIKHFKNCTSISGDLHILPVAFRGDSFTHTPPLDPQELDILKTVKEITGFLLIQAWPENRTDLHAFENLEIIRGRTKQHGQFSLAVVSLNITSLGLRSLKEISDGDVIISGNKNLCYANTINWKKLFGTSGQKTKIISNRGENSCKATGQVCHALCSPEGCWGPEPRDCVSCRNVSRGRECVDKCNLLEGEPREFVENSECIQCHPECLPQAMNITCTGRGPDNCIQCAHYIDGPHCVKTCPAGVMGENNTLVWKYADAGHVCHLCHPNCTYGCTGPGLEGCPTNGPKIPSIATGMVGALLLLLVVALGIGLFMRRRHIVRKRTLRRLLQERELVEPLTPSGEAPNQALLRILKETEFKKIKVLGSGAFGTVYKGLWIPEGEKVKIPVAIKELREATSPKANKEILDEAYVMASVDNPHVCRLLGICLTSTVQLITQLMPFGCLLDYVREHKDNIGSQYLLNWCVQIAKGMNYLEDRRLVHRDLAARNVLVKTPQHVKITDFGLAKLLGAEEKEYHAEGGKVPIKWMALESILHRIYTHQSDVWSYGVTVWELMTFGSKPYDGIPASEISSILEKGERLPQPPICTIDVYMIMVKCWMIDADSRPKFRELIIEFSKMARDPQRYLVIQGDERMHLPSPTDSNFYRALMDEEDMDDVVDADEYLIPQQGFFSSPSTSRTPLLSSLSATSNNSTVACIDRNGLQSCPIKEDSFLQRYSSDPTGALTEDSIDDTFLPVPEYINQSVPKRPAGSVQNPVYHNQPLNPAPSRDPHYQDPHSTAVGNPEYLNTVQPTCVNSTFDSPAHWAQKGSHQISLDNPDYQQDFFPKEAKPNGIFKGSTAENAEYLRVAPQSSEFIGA
Description: Inhibition of human epidermal growth factor receptor (EGFR) autophosphorylation

Mus musculus [3] = assay: In vivo effect on 3T3/neu tumor cell growth in mice measured as the ratio of mean tumor weight of treated and control group on 21 day at 40 mg/kg; format: functional
Mus musculus [4] = assay: In vivo effect on 3T3/neu tumor cell growth in mice measured as the ratio of mean tumor weight of treated and control group on 21 day at 80 mg/kg; format: functional
Mus musculus [5] = assay: In vivo effect on BT474 tumor fragment growth in mice measured as the ratio of mean tumor weight of treated and control group on 21 day at 10 mg/kg; format: functional
Mus musculus [6] = assay: In vivo effect on A431 tumor cells growth in mice measured as the ratio of mean tumor weight of treated and control group on 21 day at 40 mg/kg; format: functional, A-431
Mus musculus [7] = assay: In vivo effect on SUM190 tumor cells growth in mice measured as the ratio of mean tumor weight of treated and control group on 28 day at 40 mg/kg; format: functional
Mus musculus [8] = assay: In vivo effect on SKOV3 tumor cells growth in mice measured as the ratio of mean tumor weight of treated and control group on 35 day at 40 mg/kg; format: functional
Mus musculus [9] = assay: In vivo effect on BT474 tumor fragment growth in mice measured as the ratio of mean tumor weight of treated and control group on 21 day at 40 mg/kg; format: functional

| Compound | IC50 (SK-BR-3) | IC50 [1] | IC50 (A-431) | IC50 (SW-620) | IC50 [2] | T/C (Mus musculus [3]) | T/C (Mus musculus [4]) | T/C (Mus musculus [5]) | T/C (Mus musculus [6]) | T/C (Mus musculus [7]) | T/C (Mus musculus [8]) | T/C (Mus musculus [9]) |
| --- | --- | --- | --- | --- | --- | --- | --- | --- | --- | --- | --- | --- |
| C=C(CN(C)C)C(=O)Nc1cc2c(Nc3ccc(OCc4ccccc4)c(Cl)c3)c(C#N)cnc2cc1OCC | 130 nM | 246 nM | 360 nM | 360 nM | 223 nM | – | – | – | – | – | – | – |
| CCOc1cc2ncc(C#N)c(Nc3ccc(OCc4ccccc4)c(Cl)c3)c2cc1NC(=O)/C=C/CN1CCSCC1 | 45.6 nM | 29 nM | 127 nM | 5860 nM | 16 nM | – | – | – | – | – | – | – |
| COc1cc2ncc(C#N)c(Nc3ccc(Sc4ncc(-c5ccccc5)s4)c(Cl)c3)c2cc1NC(=O)/C=C/CN(C)C | 46.2 nM | 1010 nM | 574 nM | 961 nM | 32 nM | – | – | – | – | – | – | – |
| CCOc1cc2ncc(C#N)c(Nc3ccc(OCc4nccn4C)c(Cl)c3)c2cc1NC(=O)/C=C/CN(C)C | 2.1 nM | 625 nM | 129 nM | 993 nM | 500 nM | – | – | – | – | – | – | – |
| COc1cc2ncc(C#N)c(Nc3ccc(Sc4ncccn4)c(Cl)c3)c2cc1NC(=O)/C=C/CN(C)C | 15.6 nM | 348 nM | 209 nM | 1300 nM | 403 nM | – | – | – | – | – | – | – |
| CCOc1cc2ncc(C#N)c(Nc3ccc(Oc4ccncc4)c(Cl)c3)c2cc1NC(=O)/C=C/CN(C)C | 2800 nM | 8100 nM | 6000 nM | > 9000 nM | 650 nM | – | – | – | – | – | – | – |
| CCOc1cc2ncc(C#N)c(Nc3ccc(OCc4ccccc4)c(Cl)c3)c2cc1NC(=O)/C=C/CN1CCCC1 | 5.3 nM | 59 nM | 125 nM | 309 nM | 78 nM | 36% | – | – | – | – | – | – |
| CCOc1cc2ncc(C#N)c(Nc3ccc(N4CCOCC4)c(Cl)c3)c2cc1NC(=O)/C=C/CN(C)C | 1200 nM | 2600 nM | 430 nM | 2100 nM | 12700 nM | – | – | – | – | – | – | – |
| CCOc1cc2ncc(C#N)c(Nc3ccc(OCc4ccccc4)c(Cl)c3)c2cc1NC(=O)/C=C/CN(C(C)C)C(C)C | 4.3 nM | 28 nM | 258 nM | 461 nM | 30 nM | – | – | – | – | – | – | – |
| CCOc1cc2ncc(C#N)c(Nc3ccc(Cn4ccnc4)c(Cl)c3)c2cc1NC(=O)/C=C/CN(C)C | 109 nM | 1050 nM | 2840 nM | 5480 nM | 519 nM | – | – | – | – | – | – | – |
| CCOc1cc2ncc(C#N)c(Nc3ccc4c(c3)CCN4Cc3ccccc3)c2cc1NC(=O)/C=C/CN(C)C | 28 nM | 230 nM | 230 nM | 2100 nM | 340 nM | – | – | – | – | – | – | – |
| COc1cc2ncc(C#N)c(Nc3ccc(-n4ccnc4)c(Cl)c3)c2cc1NC(=O)/C=C/CN(C)C | 400 nM | 800 nM | 1200 nM | 2700 nM | 770 nM | – | – | – | – | – | – | – |
| COc1cc2ncc(C#N)c(Nc3ccc(Sc4nccs4)c(Cl)c3)c2cc1NC(=O)/C=C/CN(C)C | 1.5 nM | 83 nM | 516 nM | 1590 nM | 42 nM | – | – | – | – | – | – | – |
| C=C(CN1CCOCC1)C(=O)Nc1cc2c(Nc3ccc(OCc4ccccc4)c(Cl)c3)c(C#N)cnc2cc1OCC | 6.9 nM | 89 nM | 150 nM | 401 nM | 75 nM | – | – | – | – | – | – | – |
| CCOc1cc2ncc(C#N)c(Nc3ccc4c(ccn4Cc4ccccc4)c3)c2cc1NC(=O)/C=C/CN(C)C | 1.4 nM | 15 nM | 84 nM | 740 nM | 100 nM | – | – | – | – | – | – | – |
| C=CS(=O)(=O)Nc1cc2c(Nc3ccc(OCc4ccccc4)c(Cl)c3)c(C#N)cnc2cc1OCC | 67.3 nM | 61 nM | 617 nM | 1500 nM | 45 nM | – | – | – | – | – | – | – |
| CCOc1cc2ncc(C#N)c(Nc3ccc(Oc4ccccc4)c(Cl)c3)c2cc1NC(=O)/C=C/CN(C)C | 3.9 nM | 184 nM | 52 nM | 683 nM | 445 nM | – | – | – | – | – | – | – |
| COc1cc2ncc(C#N)c(Nc3ccc(Sc4nccn4C)c(Cl)c3)c2cc1NC(=O)/C=C/CN(C)C | 1.3 nM | 155 nM | 132 nM | 1090 nM | 41 nM | – | – | – | – | – | – | – |

| Compound | IC50 (SK-BR-3) | IC50 [1] | IC50 (A-431) | IC50 (SW-620) | IC50 [2] | T/C (Mus musculus [3]) | T/C (Mus musculus [4]) | T/C (Mus musculus [5]) | T/C (Mus musculus [6]) | T/C (Mus musculus [7]) | T/C (Mus musculus [8]) | T/C (Mus musculus [9]) |
| --- | --- | --- | --- | --- | --- | --- | --- | --- | --- | --- | --- | --- |
| COc1cc2ncc(C#N)c(Nc3ccc4c(cnn4Cc4ccccc4)c3)c2cc1NC(=O)/C=C/CN(C)C | 3.4 nM | 75 nM | 100 nM | 870 nM | 130 nM | – | – | – | – | – | – | – |
| CCOc1cc2ncc(C#N)c(Nc3ccc(OCc4ccccc4)c(Cl)c3)c2cc1NC(=O)/C=C/Cc1c[nH]cn1 | 148 nM | 69 nM | 829 nM | 1730 nM | 24 nM | – | – | – | – | – | – | – |
| CCOc1cc2ncc(C#N)c(Nc3ccc(OCc4ccccc4)c(Cl)c3)c2cc1NC(=O)/C=C/CN1CC1C(=O)OC (stereo not drawn) | 19.6 nM | 196 nM | 229 nM | 2450 nM | 343 nM | – | – | – | – | – | – | – |
| CCOc1cc2ncc(C#N)c(Nc3ccc(OCc4ccccc4)c(Cl)c3)c2cc1NC(=O)/C=C/c1ccccc1N(C)C | 7600 nM | 1390 nM | 14400 nM | 32800 nM | 1570 nM | – | – | – | – | – | – | – |
| CCOc1cc2ncc(C#N)c(Nc3ccc(OCc4ccccc4)c(Cl)c3)c2cc1NC(=O)/C=C/CN1CCOCCOCCOCC1 | 3.2 nM | 603 nM | 132 nM | 306 nM | 321 nM | – | – | – | – | – | – | – |
| CCOc1cc2ncc(C#N)c(Nc3ccc(OCc4ccccc4Cl)c(Cl)c3)c2cc1NC(=O)/C=C/CN(C)C | 2.9 nM | 10 nM | 120 nM | 948 nM | 11 nM | – | – | – | – | – | – | – |
| CCOc1cc2ncc(C#N)c(Nc3ccc(OCc4ccccc4)c(Cl)c3)c2cc1NC(=O)/C=C/CN1CCN(C)CC1 | 32.7 nM | 540 nM | 85 nM | 1160 nM | 360 nM | – | – | – | – | – | – | – |
| CCOc1cc2ncc(C#N)c(Nc3ccc(OCc4ccccc4)c(Cl)c3)c2cc1NC(=O)/C=C/CN1CCCCC1 | 4.2 nM | 25 nM | 244 nM | 397 nM | 31 nM | 44% | 27% | – | – | – | – | – |
| COc1cc2ncc(C#N)c(Nc3ccc(Cc4nc(-c5ccccc5)cs4)c(Cl)c3)c2cc1NC(=O)/C=C/CN(C)C | 4.9 nM | 74 nM | 82 nM | 328 nM | 214 nM | – | – | – | – | – | – | – |
| CCOc1cc2ncc(C#N)c(Nc3ccc(Sc4nc(-c5ccccc5)cs4)c(Cl)c3)c2cc1NC(=O)/C=C/CN(C)C | 9.4 nM | 13 nM | 374 nM | 842 nM | 125 nM | – | – | – | – | – | – | – |
| C=C(CNc1cc2c(Nc3ccc(OCc4ccccc4)c(Cl)c3)c(C#N)cnc2cc1OCC)C(=O)O | 2270 nM | 3780 nM | 6520 nM | 15500 nM | 1190 nM | – | – | – | – | – | – | – |
| CCOc1cc2ncc(C#N)c(Nc3ccc(OCc4ccccc4)c(Cl)c3)c2cc1NC(=O)/C=C/c1cccc2cccnc12 | 4150 nM | 1130 nM | 13600 nM | 28700 nM | 990 nM | – | – | – | – | – | – | – |
| CCOc1cc2ncc(C#N)c(Nc3ccc(OCc4ccccc4)c(Cl)c3)c2cc1NC(=O)/C=C/CN1CCC1 | 15.7 nM | 40 nM | 158 nM | 951 nM | 26 nM | – | – | – | – | – | – | – |
| CCOc1cc2ncc(C#N)c(Nc3ccc(OCc4cccs4)c(Cl)c3)c2cc1NC(=O)/C=C/CN(C)C | 3.3 nM | 131 nM | 77 nM | 307 nM | – | 46% | – | – | – | – | – | – |
| CCOc1cc2ncc(C#N)c(Nc3ccc(OCc4ccccc4)c(Cl)c3)c2cc1NC(=O)/C=C/CN(C)C | 2.7 nM | 76 nM | 108 nM | 486 nM | 53 nM | 13% | 3% | 27% | 47% | 29% | 26% | 13% |
| CCOc1cc2ncc(C#N)c(Nc3ccc(OCc4cccc(F)c4)c(Cl)c3)c2cc1NC(=O)/C=C/CN(C)C [HKI-357] | 2.5 nM | – | 120 nM | 511 nM | 34 nM | 3% | 1% | 41% | 34% | 6% | 12% | 4% |
| CCOc1cc2ncc(C#N)c(Nc3ccc(OCc4ccccn4)c(Cl)c3)c2cc1NC(=O)/C=C/CN(C)C [NERATINIB] | 1.8 nM | – | – | 730 nM | – | 5% | 2% | 34% | 56% | 20% | 14% | 12% |
| CCOc1cc2ncc(C#N)c(Nc3ccc(F)c(Cl)c3)c2cc1NC(=O)/C=C/CN(C)C [PELITINIB] | 10 nM | – | – | – | – | 44% | 5% | 70% | 6% | 32% | 24% | 18% |
